Results taken from US11072591B2, “Tetrazole compounds and their use in the treatment of tuberculosis” (GLAXOSMITHKLINE INTELLECTUAL PROPERTY DEVELOPMENT LIMITED, priority 2017, dated 2021).
In brackets after ≈: the same amount, converted by molar mass.

The compounds below were run on M. tuberculosis H37Rv (assay: Mycobacterium tuberculosis H37Rv Inhibition Assay (Whole Cell Assay), MIC). Conditions: 144 h, M. tuberculosis H37Rv, Middlebrook 7H9 + ADC, 37° C. six days, resazurin readout, read-out: MIC_H37Rv.
Type: cell-based

SMILES | MIC [µM]
O=S(=O)(NCCO)c1ccc(-c2nnn(CC3CCOCC3)n2)cc1F [Example 78, 2-fluoro-N-(2-hydroxyethyl)-4-(2-((tetrahydro-2H-pyran-4-yl)methyl)-2H-tetrazol-5-yl)benzenesulfonamide] | < 0.1
O=S(=O)(NCCO)c1ccc(-c2nnn(Cc3ccc(F)cn3)n2)cc1 [Example 29, 4-(2-((5-fluoropyridin-2-yl)methyl)-2H-tetrazol-5-yl)-N-(2-hydroxyethyl)benzenesulfonamide] | < 0.1
O=S(=O)(NCCO)c1ccc(-c2nnn(Cc3ccc(C(F)(F)F)cc3)n2)cc1 [Example 98] | 5 to 10
O=S(=O)(NCC(O)CO)c1ccc(-c2nnn(Cc3ccc(F)cc3)n2)cc1 (stereo not shown) [Example 17] | 5 to 10
N#Cc1ccc(Cn2nnc(-c3ccc(S(=O)(=O)NCCO)cc3)n2)nc1 [Example 20] | < 0.1
C[C@@H](O)CNS(=O)(=O)c1ccc(-c2cn(Cc3ccc(F)cc3)nn2)cc1 [Example 70, (R)-4-(1-(4-fluorobenzyl)-1H-1,2,3-triazol-4-yl)-N-(2-hydroxypropyl) benzenesulfonamide] | < 0.1
Cc1cnc(Cn2nnc(-c3ccc(S(=O)(=O)NCC#N)cc3)n2)cn1 [Example 91, N-(cyanomethyl)-4-(2-((5-methylpyrazin-2-yl)methyl)-2H-tetrazol-5-yl)benzenesulfonamide] | < 0.1
COc1cc(-c2nnn(Cc3ccncc3)n2)ccc1S(=O)(=O)NCCO [Example 48, N-(2-hydroxyethyl)-2-methoxy-4-(2-(pyridin-4-ylmethyl)-2H-tetrazol-5-yl)benzenesulfonamide] | 1 to 5
C[C@@H](O)CNS(=O)(=O)c1ccc(-c2nnn(Cc3ccc(F)cn3)n2)cc1 [Example 25] | < 0.1
COC(=O)CNS(=O)(=O)c1ccc(-c2nnn(Cc3ccncc3)n2)cc1 [Example 44] | 5 to 10
N#Cc1ccc(Cn2cc(-c3ccc(S(=O)(=O)NCCO)cc3)nn2)cc1 [Example 66] | < 0.1
CNS(=O)(=O)c1ccc(-c2nnn(Cc3ccc(C#N)cc3)n2)cc1 [Example 108, 4-(2-(4-cyanobenzyl)-2H-tetrazol-5-yl)-N-methylbenzenesulfonamide] | 1 to 5
O=S(=O)(NCCO)c1ccc(-c2nnn(Cc3ccc(C(F)F)cc3)n2)cc1 [Example 10] | < 0.1
Cc1cc(-c2nnn(Cc3ccc(F)cn3)n2)ccc1S(=O)(=O)NCCO [Example 71, 4-(2-((5-fluoropyridin-2-yl)methyl)-2H-tetrazol-5-yl)-N-(2-hydroxyethyl)-2-methyl Benzenesulfonamide] | < 0.1
COc1ccc(Cn2nnc(-c3ccc(S(=O)(=O)NCCO)cc3)n2)nc1 [Example 31] | 1 to 5
O=S(=O)(NCCO)c1ccc(-c2nnn(Cc3ccnnc3)n2)cc1 [Example 106, N-(2-hydroxyethyl)-4-(2-(pyridazin-4-ylmethyl)-2H-tetrazol-5-yl)benzenesulfonamide] | < 0.1

SMILES | MIC [µM]
Cc1cc(S(=O)(=O)NCCO)c(F)cc1-c1nnn(Cc2ccc(F)cn2)n1 [Example 110, 2-fluoro-4-(2-((5-fluoropyridin-2-yl)methyl)-2H-tetrazol-5-yl)-N-(2-hydroxyethyl)-5-methylbenzenesulfonamide] | < 0.1
NC(=O)CNS(=O)(=O)c1ccc(-c2nnn(CC3CCCCO3)n2)cc1 (stereo not shown) [Example 96, 2-((4-(2-((tetrahydro-2H-pyran-2-yl)methyl)-2H-tetrazol-5-yl)phenyl)sulfonamido)acetamide] | < 0.1
N#CCNS(=O)(=O)c1ccc(-c2cn(Cc3ccncc3)nn2)cc1 [Example 60] | < 0.1
C[C@@H](O)CNS(=O)(=O)c1ccc(-c2nnn(CC3CCC(F)(F)CC3)n2)cc1 [Example 13] | 10 to 25
C[C@@H](O)CNS(=O)(=O)c1ccc(-c2nnn(Cc3ccc(F)cc3)n2)cc1 [Example 24] | < 0.1
COc1cnc(Cn2nnc(-c3ccc(S(=O)(=O)NCC#N)cc3)n2)cn1 [Example 92, N-(cyanomethyl)-4-(2-((5-methoxypyrazin-2-yl)methyl)-2H-tetrazol-5-yl)benzenesulfonamide] | 1 to 5
O=S(=O)(NCCO)c1ccc(-c2nnn(Cc3ccc(OC(F)(F)F)cc3)n2)cc1 [Example 97] | 1 to 5
COc1ccc(Cn2nnc(-c3ccc(S(=O)(=O)NC[C@@H](C)O)cc3)n2)cc1 [Example 28] | 1 to 5
Cc1cc(S(=O)(=O)NCCO)ccc1-c1nnn(CC2CCCCO2)n1 (single isomer, unassigned) [Example 74 Isomer 1, N-(2-hydroxyethyl)-3-methyl-4-(2-((tetrahydro-2H-pyran-2-yl)methyl)-2H-tetrazol-5-yl)benzenesulfonamide] | 5 to 10
NC(=O)CNS(=O)(=O)c1ccc(-c2nnn(CC3CCC(F)(F)CC3)n2)cc1 [Example 39] | < 0.1
C[C@@H](c1ccc(F)cn1)n1nnc(-c2ccc(S(=O)(=O)NCCO)cc2)n1 [Example 111] | 1 to 5
N#CCNS(=O)(=O)c1ccc(-c2nnn(Cc3ccncc3)n2)cc1 [Example 56] | < 0.1
N#CCNS(=O)(=O)c1ccc(-c2nnn(Cc3cnccn3)n2)cc1 [Example 90, N-(cyanomethyl)-4-(2-(pyrazin-2-ylmethyl)-2H-tetrazol-5-yl)benzenesulfonamide] | < 0.1
CCOc1ccc(Cn2nnc(-c3ccc(S(=O)(=O)NCCO)cc3)n2)cc1 [Example 99] | < 0.1
O=S(=O)(NCCO)c1ccc(-c2nnn(CC3CCCOC3)n2)cc1 (stereo not shown) [Example 104, N-(2-hydroxyethyl)-4-(2-((tetrahydro-2H-pyran-3-yl)methyl)-2H-tetrazol-5-yl)benzenesulfonamide] | 5 to 10

Same assay, conditions: M. tuberculosis H37Rv whole cell assay, value from repeated testing of the compound, read-out: MIC

SMILES | MIC [µM]
O=S(=O)(NCCO)c1ccc(-c2nnn(Cc3ccc(F)cn3)n2)cc1 [Example 29, 4-(2-((5-fluoropyridin-2-yl)methyl)-2H-tetrazol-5-yl)-N-(2-hydroxyethyl)benzenesulfonamide] | 0.07 to 0.16 (≈ 0.0265 to 0.0605 µg/mL)
COc1cc(-c2nnn(C(C)c3ccc(F)cc3)n2)ccc1S(=O)(=O)NCC(N)=O (single isomer, unassigned) [Example 115 Isomer 2, 2-(4-(2-(1-(4-fluorophenyl)ethyl)-2H-tetrazol-5-yl)-2-methoxyphenylsulfonamido)acetamide] | 0.45 to 1.25 (≈ 0.196 to 0.543 µg/mL)
C[C@@H](O)CNS(=O)(=O)c1ccc(-c2nnn(Cc3ccc(F)cn3)n2)cc1 [Example 25] | 0.6 (≈ 0.235 µg/mL)
